The text below walks through data of PMC12292992, “Betulinic Acid ω-Triphenylphosphonium Alkyl Esters: Antiproliferative Activities and In Silico Pharmacokinetic Profiles” (Biomedicines, 2025).

In data set [1] the test system is HCT-15 cells. Description: LDH release assay. The class given is cell-based, human. The protocol:
(§1) COLO205 and HCT-15 cells were cultured at 2 × 10^4 cells/well in 96-well plates and incubated for 24 h. Afterwards, BA-C4-TPP^+Br^− was added in increasing concentrations (0.5, 1, 2.5, and 5 µM) for 24 h. Finally, the supernatant of each well was transferred to a new plate (10 µL/well), and the LDH reaction mix was added (100 µL/well). The plate was incubated for 20 min at room temperature, and the absorbance of each well was measured using a Varioskan® Flash plate reader (Thermo Scientific, Waltham, MA, USA) at 450 nm. All values are expressed as a percentage of LDH activity relative to cells incubated with Cell Lysis solution (provided in the kit) for 24 h.
For orientation: Release of lactate dehydrogenase indicates damage to the cell membrane.

Data set [2] concerns COLO205 cells. As to the kind of experiment: LDH release assay. The class given is cell-based, human. The settings on record: COLO205, 0.5–5 μM, 24 h. The protocol: as §1
The test system of data set [3] is HL-60 cells. As to the kind of experiment: MTT cell viability assay, leukemia. It is filed as cell-based. To be noted: Homo sapiens, HL-60, 72 h. On the procedure:
(§2) Human cell lines were obtained from the American Type Culture Collection (ATCC, Manassas, VA, USA). Normal lung MRC-5 fibroblasts (ATCC® CCL-171™), SK-MES-1 lung cancer cells (ATCC® HTB-58™), and J82 bladder carcinoma cells (ATCC® HTB-1™) were grown as monolayers in Eagle’s minimum essential medium (MEM) with Earle’s salts, 2 mM L-glutamine, and 1.5 g/L sodium bicarbonate. Gastric epithelial AGS cells (ATCC® CRL-1739™) were grown as monolayers in Ham’s F-12 medium containing 1 mM L-glutamine and 1.5 g/L sodium bicarbonate. Promyelocytic leukemia HL-60 (ATCC® CCL-240™), colorectal adenocarcinoma HCT-15 (ATCC® CCL-225™), metastatic colorectal COLO205 (ATCC® CCL-222™), and breast cancer AU565 (ATCC® CRL-2351™, ER^−-HER2/neu^+) cells were grown in suspension in an RPMI-1640 medium containing 1 mM sodium pyruvate and 2.0 g/L sodium bicarbonate. Human breast cancer MCF-7 (ATCC® HTB-22™, ER^+-HER2/neu^−) and MDA-MB-231 (ATCC® HTB-26™, ER^−-HER2/neu^−) cells were grown as monolayers in DMEM medium. All media were supplemented with 10% heat-inactivated fetal bovine serum (HI-FBS), 100 IU/mL penicillin G, and 100 µg/mL streptomycin. Cells were maintained at 37 °C in a humidified incubator with 5% CO2.
(§3) MRC-5, SK-MES-1, J82, and AGS cells were seeded at a density of 5 × 10^4 cells/mL in 96-well plates. COLO205, HCT-15, MCF-7, MDA-MB-231, and AU565 cells were seeded at 1 × 10^5 cells/mL, while HL-60 cells were plated at 3 × 10^5 cells/mL. A volume of 100 µL of the cell suspension was added to each well. After 24 h, the compounds were added in increasing concentrations (ranging from 0 to 100 µM), and cells were incubated for 24, 48, or 72 h. The compounds were dissolved in DMSO and diluted in complete medium to a final concentration of 0.5% DMSO. Cells treated with 0.5% DMSO in complete medium were used as viability controls (100%). Etoposide (98% purity, Sigma-Aldrich, St. Louis, MO, USA) was used as the reference compound. Each concentration was tested in quadruplicate, and each experiment was performed twice using independent cell preparations. At the end of the incubation period, cell viability was determined using the MTT reduction assay. The results were transformed into percentages relative to controls, and IC50 values were obtained graphically from the dose–response curves. Results are presented as IC50 values ± standard deviation (SD).

Data set [4] concerns MDA-MB-231 cells. As to the kind of experiment: MTT cell viability assay, mammary carcinoma. The class given is cell-based. The settings on record: Homo sapiens. On the procedure:
as §2, §3

The test system of data set [5] is MCF-7 cells. As to the kind of experiment: MTT cell viability assay, mammary carcinoma. The class given is cell-based. To be noted: Homo sapiens, MCF7. The protocol:
as §2, §3
In general terms: Tetrazolium dyes change colour on reduction, which living cells bring about.

For data set [6], the system named is AU565 cells. Description: MTT cell viability assay, mammary carcinoma. It is filed as cell-based, human. To be noted: for IC50: Homo sapiens. On the procedure: as §2, §3

With `C=C(C)[C@@H]1CC[C@]2(C(=O)OCCCC[P+](c3ccccc3)(c3ccccc3)c3ccccc3)CC[C@]3(C)[C@H](CC[C@@H]4[C@@]5(C)CC[C@H](O)C(C)(C)[C@@H]5CC[C@]43C)[C@@H]12` [BA-C4-TPP^+Br^−, 4-Triphenylphosphoniobutyl 3β-hydroxylup-20(29)-en-28-oate bromide], the LDH release is on record as 18% in data set [1] (HCT-15, 2.5 μM, 24 h, relative to Cell Lysis solution) and “no significant LDH release” in data set [2]. The “LDH release relative to control (DMSO)” value in data set [1] (HCT-15, 24 h) is given as “double the control (DMSO) value”. Further, the IC50 – broadly, the concentration that gives 50% inhibition – in data set [3] came out at 220 ± 40 nM; in data set [4] (MDA-MB-231, 24 h) it was 1700 ± 440 nM; in data set [4] (MDA-MB-231, 48 h) it was 1010 ± 90 nM; in data set [5] (MCF-7, 24 h), 3880 ± 450 nM; in data set [5] (MCF-7, 48 h), 950 ± 340 nM; in data set [6] (AU565, 24 h), 1660 ± 120 nM. This molecule gave an IC50 in data set [6] (AU565, 48 h) of 600 ± 50 nM. In addition, the “increase in potency compared to non-modified BA scaffold” value in data set [6] (AU565 cells at 48 h) is recorded as approximately 15 fold.
